# Laboratory results from ChEMBL document CHEMBL3228005, “Inhibition of rat passive cutaneous anaphylaxis by 3-(tetrazol-5-yl)quinolines” (1979).
# Assays:
# Format in all cases: functional
# [1] = test system: Rattus norvegicus; assay: Inhibition of passive cutaneous anaphylaxis in po dosed Sprague-Dawley rat; details: read-out: MED
# [2] = test system: Rattus norvegicus; assay: Inhibition of passive cutaneous anaphylaxis in ip dosed Sprague-Dawley rat; details: for minimal effective dose: read-out: MED
# [3] = test system: Rattus norvegicus; assay: Inhibition of passive cutaneous anaphylaxis in po dosed Sprague-Dawley rat administered with ball-milled suspension; details: read-out: MED
# [4] = test system: Rattus norvegicus; assay: Inhibition of passive cutaneous anaphylaxis in ip dosed Sprague-Dawley rat administered with ball-milled suspension; details: read-out: MED
# [5] = test system: Rattus norvegicus; assay: Ratio of disodium cromoglycate MED to compound MED for inhibition of passive cutaneous anaphylaxis in ip dosed Sprague-Dawley rat
# [6] = test system: Rattus norvegicus; assay: Ratio of doxantrazole MED to compound MED for inhibition of passive cutaneous anaphylaxis in po dosed Sprague-Dawley rat
SMILES,minimal effective dose [1] [mg/kg],minimal effective dose [2] [mg/kg],also measured
O=C(O)c1cnc2c(F)cccc2c1O,> 100,,
COc1cccc2c(O)c(C(=O)O)cnc12,> 100,10,
O=C(O)c1cnc2ccccc2c1,150,50,
Cc1cc(F)c2[nH]cc(-c3nn[nH]n3)c(=O)c2c1.O,> 10,2.5,
Cl.O=C(O)c1cnc2ccc(F)cc2c1,> 50,,
O=C(O)c1cnc2ccc(C(F)(F)F)cc2c1,> 50,> 25,
COc1ccc2ncc(C(=O)O)cc2c1,,> 5,
O=C(O)c1cnc2ccc(OC3CCCCC3)cc2c1,,> 25,
O=C(O)c1cnc2ccc(C3CCCCC3)cc2c1,,> 25,
O=C(O)c1cnc2cc(C(F)(F)F)ccc2c1,> 25,> 25,
COc1ccc2cc(C(=O)O)cnc2c1.Cl,,> 25,
O.O=C(O)c1cnc2c(F)cccc2c1,150,> 25,
O=C(O)c1cnc2c(Cl)cccc2c1,150,25,
O=C(O)c1cnc2c(C(F)(F)F)cccc2c1,75,50,
Cc1cccc2cc(C(=O)O)cnc12,> 25,> 50,
CCc1cccc2cc(C(=O)O)cnc12,75,> 50,
COc1cccc2cc(C(=O)O)cnc12,150,25,
CCOc1cccc2cc(C(=O)O)cnc12,> 50,> 25,
COc1ccc(OC)c2ncc(C(=O)O)cc12,> 50,> 25,
O=C(O)c1cnc2c(F)cc(F)cc2c1,,25,
Cc1ccc2cc(C(=O)O)cnc2c1C,50,25,
O=C(O)c1cnc2c3c(ccc2c1)CCCC3,50,25,
O=C(O)c1cnc2c(ccc3ccccc32)c1,50,25,
c1ccc2ncc(-c3nn[nH]n3)cc2c1,25,10,

SMILES,minimal effective dose [1] [mg/kg],minimal effective dose [2] [mg/kg],also measured
Fc1ccc2ncc(-c3nn[nH]n3)cc2c1,50,< 25,
COc1ccc2ncc(-c3nn[nH]n3)cc2c1.O,> 25,10,
Cl.c1cc2ncc(-c3nn[nH]n3)cc2cc1OC1CCCCC1,10,5,
CCCCc1ccc2ncc(-c3nn[nH]n3)cc2c1,> 25,5,
Cl.c1nc2ccc(C3CCCCC3)cc2cc1-c1nn[nH]n1,> 25,5,
FC(F)(F)c1ccc2cc(-c3nn[nH]n3)cnc2c1,25,< 10,
COc1ccc2cc(-c3nn[nH]n3)cnc2c1.Cl,> 25,5,
Fc1cccc2cc(-c3nn[nH]n3)cnc12,,> 10,
FC(F)(F)c1cccc2cc(-c3nn[nH]n3)cnc12,25,< 25,
Cc1cccc2cc(-c3nn[nH]n3)cnc12,25,< 25,
CCc1cccc2cc(-c3nn[nH]n3)cnc12,5,2.5,
COc1cccc2cc(-c3nn[nH]n3)cnc12,> 25,2.5,
COc1ccc(OC)c2ncc(-c3nn[nH]n3)cc12,> 50,5,
Fc1cc(F)c2ncc(-c3nn[nH]n3)cc2c1,> 50,10,
Cc1ccc2cc(-c3nn[nH]n3)cnc2c1C,25,1,
c1nc2c3c(ccc2cc1-c1nn[nH]n1)CCCC3,5,5,
c1ccc2c(c1)ccc1cc(-c3nn[nH]n3)cnc12,10,5,
Cc1cc([N+](=O)[O-])c2cc(-c3nn[nH]n3)cnc2c1C,25,2.5,
O.O=c1c(-c2nn[nH]n2)c[nH]c2ccccc12,> 20,1.25,
O.O=c1c(-c2nn[nH]n2)c[nH]c2ccc(F)cc12,> 20,1.25,
O=c1c(-c2nn[nH]n2)c[nH]c2ccc(Cl)cc12,> 25,> 10,
Cc1ccc2[nH]cc(-c3nn[nH]n3)c(=O)c2c1.O,> 25,1.25,
CCc1ccc2[nH]cc(-c3nn[nH]n3)c(=O)c2c1.O,0.625,< 5,minimal effective dose [3]: 0.156 mg/kg
CCc1ccc2c(=O)c(-c3nn[nH]n3)c[nH]c2c1.O,> 10,< 5,

SMILES,minimal effective dose [1] [mg/kg],minimal effective dose [2] [mg/kg],also measured
COc1ccc2c(=O)c(-c3nn[nH]n3)c[nH]c2c1,,10,
O=c1c(-c2nn[nH]n2)c[nH]c2c(F)cccc12,10,0.625,minimal effective dose [3]: 2.5 mg/kg
O=c1c(-c2nn[nH]n2)c[nH]c2c(Cl)cccc12,,0.078,minimal effective dose [4]: 0.156 mg/kg; Ratio [5]: 33; Ratio [6]: 32
O=c1c(-c2nn[nH]n2)c[nH]c2c(Br)cccc12,> 10,> 5,
O=c1c(-c2nn[nH]n2)c[nH]c2c(C(F)(F)F)cccc12,> 25,0.156,
Cc1cccc2c(=O)c(-c3nn[nH]n3)c[nH]c12,> 10,> 5,
CCc1cccc2c(=O)c(-c3nn[nH]n3)c[nH]c12,> 25,0.312,
CC(C)c1cccc2c(=O)c(-c3nn[nH]n3)c[nH]c12,10,1.25,
COc1cccc2c(=O)c(-c3nn[nH]n3)c[nH]c12.O,0.312,0.15,
CC(C)Oc1cccc2c(=O)c(-c3nn[nH]n3)c[nH]c12,1.25,0.078,
CSc1cccc2c(=O)c(-c3nn[nH]n3)c[nH]c12,25,10,
CS(=O)(=O)c1cccc2c(=O)c(-c3nn[nH]n3)c[nH]c12,> 25,10,
O=c1c(-c2nn[nH]n2)c[nH]c2c(F)ccc(F)c12,10,> 0.156,
O=c1c(-c2nn[nH]n2)c[nH]c2c(Cl)ccc(Cl)c12,0.312,> 0.156,
O.O=c1c(-c2nn[nH]n2)c[nH]c2c(Cl)cc(Cl)cc12,> 10,> 0.156,
O=c1c(-c2nn[nH]n2)c[nH]c2c(Cl)c(Cl)ccc12,> 10,> 0.156,
COc1ccc(OC)c2c(=O)c(-c3nn[nH]n3)c[nH]c12,> 10,1.25,
O.O=c1c(-c2nn[nH]n2)c[nH]c2c3c(ccc12)CCCC3,> 25,,
COc1ccc2c(O)c(C(=O)O)cnc2c1,> 100,> 50,
COc1ccc2ncc(C(=O)O)c(O)c2c1,> 100,> 50,
O=C(O)c1cnc2c(Cl)cccc2c1O,> 100,,
O=C([O-])c1cc(=O)c2c(OCC(O)COc3cccc4oc(C(=O)[O-])cc(=O)c34)cccc2o1.[Na+].[Na+] [CROMOLYN SODIUM],,,ED50 [2]: 2.6 mg/kg
O=C1c2ccccc2S(=O)(=O)c2cc(-c3nn[nH]n3)ccc21 [DOXANTRAZOLE],5,,
